Data set [1] is described as follows: Particle morphology by scanning electron micrograph. It is filed as physicochemical. The note with it: SEM. An excerpt:
A figure of the morphology of Form I and form HxA is depicted in FIG. 13 (Form I) and 14 (form HxA), at different magnifications (500× magnification (Form I), 1.500× magnification (Form I and form HxA), and 5.000× magnification (form HxA)).

The nature of data set [2]: Compressibility testing of API (bulk/tapped volume, compressibility index). Type of data set: physicochemical. The note with it: API batches; for Compressibility index: (Vb−Vt)/Vb; for Flow character according to PhEur: PhEur Chapter 2.9.36 Powder flow. On the procedure: As described in Example 8 herein above, the sodium salt of dolutegravir was prepared in two polymorphic forms (Form I and form HxA). […] Compressibilty index is an indirect measure of different powder properties such as size, shape, surface area, cohesiveness etc. (PhEur). Bulk (Vb) and tapped (Vt) volume were measured for several batches of both forms and the compressibilty index (%) is determined based on Vb and Vt. 250 mL volumetric cylinder with test samples weight approximately 25 g were used. The compressibility index was calculated according to formula ((Vb−Vt)/Vb).

Data set [3] can be described thus: API particle size by laser diffraction.
The nature of data set [4]: Gravimetric moisture sorption/desorption (GMSD) experiments. It is filed as physicochemical. The settings on record: 25±0.1° C. As for the experimental part:
Comparative gravimetric moisture sorption/desorption experiments at 25±0.1° C. were conducted with dolutegravir sodium monohydrate of WO 2010/068253 A1 and the hydrates of the present invention designated form HxA and form Hy1B.
The water values at varying relative humidities were obtained by recording moisture sorption/desorption isotherms with a SPS-11 moisture sorption analyzer (MD Messtechnik, Ulm, D). The samples were weighed into Teflon sample holders. […] The equilibrium condition for each step was set to a mass constancy of ±0.005% over 60 min. The temperature was 25±0.1° C. The water content of the samples was determined after the moisture sorption/desorption experiments with a TGA 7 system (Perkin Elmer, Norwalk, Conn., USA) using the Pyris 2.0 software. The samples were weighed into Al pans (50 μL). Dry nitrogen was used as purge gas (purge rate: 20 mL/min). The samples were heated from 25 to 200° C. using a heating rate of 10° C./min.

Setting [5] is: listed as dolutegravir sodium monohydrate of WO 2010/068253 A1.
Setting [6] is: 95% RH, listed as dolutegravir sodium monohydrate of WO 2010/068253 A1.

Values joined by “and” are separate entries in the source; they are usually repeats but may differ in a detail not shown here. Equal values may be shown once. “Also recorded” adds a separate entry of the source.

On to `C[C@@H]1CCO[C@H]2Cn3cc(C(=O)NCc4ccc(F)cc4F)c(=O)c([O-])c3C(=O)N12.[Na+]` [Form I, reference compound], for which, in data set [1], the morphology of particles result is on record as “long needle like crystals” and the needle lengths was no more than 70 μm. Besides, in data set [2], the Bulk volume was 5.55 mL/g and 7.00 mL/g and 4.89 mL/g; the Tapped volume was 3.79 mL/g and 4.56 mL/g and 3.23 mL/g; the Compressibility index is 32% and 35% and 34%; the “Flow character according to PhEur” value is reported as “Very poor”. In data set [3], this molecule yielded a d0.1 of 3.5 μm, a d0.5 of 10 μm and a d0.9 of 40 μm.

For the molecule `C[C@@H]1CCO[C@H]2Cn3cc(C(=O)NCc4ccc(F)cc4F)c(=O)c([O-])c3C(=O)N12.[Na+]` [MH of WO 2010/068253, reference compound], in data set [4], the “Remarks: dehydration below” value was “dehydration below 30% RH,”, the “Remarks: hysteresis at (RH range)” value is on record as “hysterises at 40-95% RH”, the “Remarks: stable at / preserves crystal structure (RH range)” value is listed as “stable at 30-60% RH,” and the “Δm sorption [0-90% RH]” value is listed as “+14.0%”. Besides, the “Δm sorption [30-90% RH]” value in data set [4] is reported as “+10.7%”. In addition, in data set [4] (setting [5]), the “Remarks: dehydration below” value is “Below 30 % RH” and the hygroscopicity entry was “very hygroscopic”. Further, in data set [4] (setting [6]), the maximum water content entry is “about 21.8%” and the “mol of water per mol of dolutegravir sodium” value is reported as 5.6 mol of water per mol of dolutegravir sodium.

With `C[C@@H]1CCO[C@H]2Cn3cc(C(=O)NCc4ccc(F)cc4F)c(=O)c([O-])c3C(=O)N12.[Na+]` [Form HxA, sodium (4R,12aS)-9-((2,4-difluorobenzyl)carbamoyl)-4-methyl-6,8-dioxo-3,4,6,8,12,12a-hexahydro-2H-pyrido[1′,2′:4,5]pyrazino[2,1-b][1,3]oxazin-7-olate], in data set [4], the “Remarks: hysteresis between sorption and desorption isotherms” value is “no significant hysterises”; the “Remarks: stable at / preserves crystal structure (RH range)” value is listed as “stable at 0-95% RH”; the “Remarks: structural changes” value was “no structural changes observed”; the “Δm sorption [0-90% RH]” value is reported as “+3.4%”. Moreover, the “Δm sorption [30-90% RH]” value in data set [4] is “+2.5%”. Besides, in data set [4] (listed as form HxA), the “Remarks: hysteresis between sorption and desorption isotherms” value is recorded as “absence of a hysteresis”; the hygroscopicity entry is given as “significantly less hygroscopic than the monohydrate of WO 2010/068253 A1”. For the same molecule, in data set [4] (95% RH), the maximum water content entry is given as “about 3.8%” and the “mol of water per mol of dolutegravir sodium” value is given as 0.9 mol of water per mol of dolutegravir sodium. In data set [4] (95% RH, listed as form HxA), this molecule registered a maximum water content of 3.9%. In addition, in data set [4] (about 30% RH), the “mol of water per mol of dolutegravir sodium” value is 0.2 mol of water per mol of dolutegravir sodium and the water content entry is recorded as “about 0.9%”. For the same molecule, the “mol of water per mol of dolutegravir sodium” value in data set [4] (about 70% RH) was 0.7 mol of water per mol of dolutegravir sodium. Further, in data set [1], the morphology of particles result was “thin-plate like morphology” and the “particle sizes (primary particles)” value is listed as “about 5 μm”. Moreover, the morphology of particles result in data set [1] (listed as HxA form) was “thin-plate like morphology”. In data set [2], the Bulk volume is 4.02 mL/g and 2.88 mL/g and 3.30 mL/g and 2.89 mL/g; the Tapped volume was 2.86 mL/g and 2.14 mL/g and 2.60 mL/g and 2.25 mL/g; the Compressibility index was 29% and 26% and 21% and 22%; the “Flow character according to PhEur” value is “Poor and Passable”. In addition, in data set [2] (listed as HxA form), the Compressibility index was 22-29% and the “Flow character according to PhEur” value is given as ““poor” to “passable””. In data set [3], this molecule came in with a d0.1 of 1.3 μm, a d0.5 of 3.1 μm and a d0.9 of 7.4 μm. Also, the Particle size result in data set [3] (achieved with crystallization only) is listed as “below 10 μm”.

With `C[C@@H]1CCO[C@H]2Cn3cc(C(=O)NCc4ccc(F)cc4F)c(=O)c([O-])c3C(=O)N12.[Na+]` [Form Hy1B, sodium (4R,12aS)-9-((2,4-difluorobenzyl)carbamoyl)-4-methyl-6,8-dioxo-3,4,6,8,12,12a-hexahydro-2H-pyrido[1′,2′:4,5]pyrazino[2,1-b][1,3]oxazin-7-olate], in data set [4], the “Remarks: hysteresis between sorption and desorption isotherms” value is recorded as “absence of a significant hysteresis; also recorded: no significant hysterises”; the hygroscopicity entry is on record as “significantly less hygroscopic than the monohydrate of WO 2010/068253 A1”; the “Δm sorption [0-90% RH]” value is on record as “+4.8%”; the “Δm sorption [30-90% RH]” value is on record as “+2.4%”. The “mol of water per mol of dolutegravir sodium” value in data set [4] (90% RH) was 1.3 mol of water per mol of dolutegravir sodium.

(Values after patent US10189860B2, “Hydrates of dolutegravir sodium” (LEK PHARMACEUTICALS D.D., priority 2014, dated 2019).)
